Results on 28 compounds are retold here after patent publication US20060111341A1, “Use of galanthamine and the derivatives thereof in the production of medicaments” (priority 2003, published 2006).

pIC50: −log10 of the molar value.

Sequence of Acetylcholinesterase (P22303 32-614): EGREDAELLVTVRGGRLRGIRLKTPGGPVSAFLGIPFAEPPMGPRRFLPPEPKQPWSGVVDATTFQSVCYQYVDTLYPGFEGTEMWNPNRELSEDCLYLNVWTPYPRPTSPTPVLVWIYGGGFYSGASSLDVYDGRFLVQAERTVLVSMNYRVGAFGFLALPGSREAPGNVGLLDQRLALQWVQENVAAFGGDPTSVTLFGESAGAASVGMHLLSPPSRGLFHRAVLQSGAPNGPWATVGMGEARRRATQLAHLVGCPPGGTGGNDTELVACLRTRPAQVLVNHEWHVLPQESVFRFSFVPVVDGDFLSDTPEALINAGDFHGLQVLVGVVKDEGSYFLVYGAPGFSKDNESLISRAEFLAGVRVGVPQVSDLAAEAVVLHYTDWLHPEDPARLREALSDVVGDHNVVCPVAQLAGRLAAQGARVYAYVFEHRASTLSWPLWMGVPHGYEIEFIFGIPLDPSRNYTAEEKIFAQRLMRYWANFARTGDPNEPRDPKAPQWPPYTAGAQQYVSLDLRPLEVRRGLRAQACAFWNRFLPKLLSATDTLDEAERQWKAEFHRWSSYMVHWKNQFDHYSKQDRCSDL

The test has as its target Acetylcholinesterase (Homo sapiens, UniProt P22303). The test can be described thus: biochemical.
`COc1cc(Br)c2c3c1OC1CC(=O)C=CC31CCN(C)C2` (racemic) [Nr 11] showed a negative logarithm of the IC50 (pIC50) of 4.30.

`COc1cc(Br)c2c(c1O)C13C=CC(=O)CC1N(CC3)C2` (racemic) [Nr 13]: the pIC50 was 5.30.

As for `COc1cc(Br)c2c3c1OC1C[C@@H](O)C=CC31CCN(CCN1CCOCC1)C2` (mixture of isomers) [Nr 25], the pIC50 was 5.52.

The compound `CCOC(=O)CN1CCC23C=C[C@H](O)CC2Oc2c(OC)cc(Br)c(c23)C1` (mixture of isomers) [Nr 26] gave a pIC50 of 4.70.

In turn, `COc1ccc2c3c1OC1C/C(=N/N)C=CC31CCN(C)C2` (racemic) [Nr 28] gave a pIC50 of 4.40.

On to `COc1cc(Br)c2c3c1OC1C[C@@H](O)C=CC31CCN(C(=O)CCN1CCCCC1)C2` (mixture of isomers) [Nr 43], for which the negative-log IC50 (pIC50) is 6.70. Compared with the last compound, the pIC50 is 2.30 log units higher.

The compound `COc1cc(Br)c2c3c1OC1C[C@@H](O)C=CC31CCNC2` (mixture of isomers) [Nr 93] showed a pIC50 of 5.30.

Regarding `COc1cc(Br)c2c(c1O)C13CCC(O)CC1N(CC3)C2` (racemic) [Nr 205], the negative logarithm of the IC50 (pIC50) is 4.30.

For `COc1ccc2c3c1O[C@H]1C[C@@H](O)C=C[C@@]31CC[N+](C)(CCCN1CCCCC1)C2` (stereo partly shown) [Nr 4], the negative-log IC50 (pIC50) is 5.22.

Compound `COc1ccc2c3c1O[C@H]1C[C@H](OC(=O)CNC(=O)OC(C)(C)C)C=C[C@@]31CCN(C)C2` [Nr 6] gave a pIC50 of 4.35.

In the case of `COc1ccc2c3c1O[C@H]1C[C@@H](O)C=C[C@@]31CC[N+](C)(CCN1CCCC1)C2` (stereo partly shown) [Nr 7], the negative-log IC50 (pIC50) is 5.70.

`COc1ccc2c3c1O[C@H]1C[C@@H](O)C=C[C@@]31CC[N+](C)(CCN(C)C)C2` (stereo partly shown) [Nr 8]: the pIC50 is 5.10.

As to `COc1cc(Br)c2c3c1O[C@H]1C[C@@H](O)C=C[C@@]31CCNC2` [Nr 29], the negative-log IC50 (pIC50) was 5.52.

Take `COc1cc(Br)c2c3c1O[C@H]1C[C@@H](O)C=C[C@@]31CCN(C)C2` [Nr 30]: the negative-log IC50 (pIC50) is 5.40. The pIC50 values of the last two compounds are within 0.2 log units of each other.

The compound `COc1ccc2c3c1O[C@H]1C[C@@H](O)C=C[C@@]31CC[N+](C)(CC(N)=O)C2` (stereo partly shown) [Nr 51] gave a pIC50 of 5.51. The pIC50 values of the last two compounds are within 0.2 log units of each other.

In turn, `COc1ccc2c3c1O[C@H]1C[C@@H](O)C=C[C@@]31CC[N+](C)(CCN1CCCCC1)C2` (stereo partly shown) [Nr 52] showed a pIC50 of 5.40.

In the case of `COc1ccc2c3c1O[C@H]1C[C@@H](O)C=C[C@@]31CC[N+](C)(CCCCl)C2` (stereo partly shown) [Nr 59], the pIC50 is 6.46.

Compound `COc1ccc2c3c1O[C@@H]1C[C@H](O)C=C[C@]31CCN(C(=O)NC(C)(C)C)C2` [Nr 125] gave a pIC50 of 4.03. This pIC50 lies 2.43 log units lower than the previous one.

On to `COc1ccc2c3c1O[C@H]1C[C@@H](O)C=C[C@@]31CCN(C)[C@@H]2C#N` [Nr 132], for which the pIC50 was 5.92.

In turn, `COc1ccc2c3c1O[C@H]1C[C@@H](O)C=C[C@@]31CCN(C(=O)OCC1c3ccccc3-c3ccccc31)C2` [Nr 134] had a negative-log IC50 (pIC50) of 4.40.

`COc1ccc2c3c1O[C@H]1C[C@@H](O)C=C[C@@]31CCN(CC#N)C2` [Nr 136] had a negative logarithm of the IC50 (pIC50) of 4.82.

Regarding `COc1cc(C)c2c3c1O[C@H]1C[C@@H](O)C=C[C@@]31CCN(C)C2C` (stereo partly shown) [Nr 146], the pIC50 was 4.08.

Take `C#CCN1CC[C@@]23C=C[C@H](O)C[C@@H]2Oc2c(OC)ccc(c23)C1` [Nr 156]: the negative logarithm of the IC50 (pIC50) was 4.49.

For `COc1ccc2c3c1O[C@H]1C[C@@H](O)C=C[C@@]31CCN(CCCN1CCCCC1)C2` [Nr 162], the pIC50 was 6.44.

For the compound `COc1ccc2c3c1O[C@H]1C[C@@H](O)C=C[C@@]31CCN(CCCCCN1C(=O)c3ccccc3S1(=O)=O)C2` [Nr 163], the negative-log IC50 (pIC50) was 7.66.

As to `COc1ccc2c3c1O[C@H]1C[C@@H](O)C=C[C@@]31CCN(CCCCCCN1C(=O)c3ccccc3S1(=O)=O)C2` [Nr 164], the negative logarithm of the IC50 (pIC50) was 7.37.

Compound `COc1ccc2c3c1O[C@H]1C[C@@H](O)C=C[C@@]31CCN(CCCCN1C(=O)c3ccccc3S1(=O)=O)C2` [Nr 165] had a pIC50 of 7.57.

The compound `COc1cc2c(cc1OC)C(=O)C(CCCCCN1CC[C@@]34C=C[C@H](O)C[C@@H]3Oc3c(OC)ccc(c34)C1)C2` (stereo partly shown) [Nr 166] gave a negative logarithm of the IC50 (pIC50) of 7.64. The pIC50 values of the last two compounds are within 0.2 log units of each other.

As usually defined, the pIC50 is the IC50 on a negative log10 scale, so that one unit is a factor of ten. High values mean a small IC50, low ones a large IC50.
